# Reference: PubChem BioAssay AID330 (DTP/NCI, 2004)
# “And” between values parts separate entries of the source, which are not always exact repeats. Equal values may be shown once. Inconclusive results and toxic doses are left out.
# Tested on: P388 leukemia ip, CD2F1 mice, survival T/C
# Assay: NCI In Vivo Anticancer Drug Screen. Data for tumor model P388 Leukemia (intraperitoneal) in CD2F1 (CDF1) mice
# Details: endpoint: median survival time, higher = longer survival
# Procedure, shortened: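 Mice carrying the transplanted tumor received test compound or vehicle. Survival was recorded in each group, and the value is the treated-group measurement divided by that of the vehicle-treated control group.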
# [1] = dose: 12.5 mg/kg/injection, schedule: Q01DX009 (ip), vehicle: Klucel (hydroxypropylcellulose) (HPC)
# [2] = dose: 25.0 mg/kg/injection, schedule: Q01DX009 (ip), vehicle: Klucel (hydroxypropylcellulose) (HPC)
# [3] = dose: 50.0 mg/kg/injection, schedule: Q01DX005 (ip), vehicle: saline with Tween-80
# [4] = dose: 100.0 mg/kg/injection, schedule: Q01DX005 (ip), vehicle: saline with Tween-80
# [5] = dose: 200.0 mg/kg/injection, schedule: Q01DX005 (ip), vehicle: saline with Tween-80
# [6] = dose: 60.0 mg/kg/injection, schedule: Q01DX005 (ip), vehicle: saline with Tween-80
# [7] = dose: 120.0 mg/kg/injection, schedule: Q01DX005 (ip), vehicle: saline with Tween-80
# [8] = dose: 240.0 mg/kg/injection, schedule: Q01DX005 (ip), vehicle: saline with Tween-80
# [9] = dose: 50.0 mg/kg/injection, schedule: Q01DX009 (ip), vehicle: saline with Tween-80
# [10] = dose: 100.0 mg/kg/injection, schedule: Q01DX009 (ip), vehicle: saline with Tween-80
# [11] = dose: 50.0 mg/kg/injection, schedule: Q01DX009 (ip), vehicle: saline
# [12] = dose: 100.0 mg/kg/injection, schedule: Q01DX009 (ip), vehicle: saline
smiles,measurement,setting,value
NC(=O)C(CCO)NC(=O)OCc1ccccc1 (stereo not given),T/C,"dose: 4.0 mg/kg/injection, schedule: Q01DX009 (ip), vehicle: other",101 % of control
same,T/C,"dose: 8.0 mg/kg/injection, schedule: Q01DX009 (ip), vehicle: other",106 % of control
same,T/C,"dose: 16.0 mg/kg/injection, schedule: Q01DX009 (ip), vehicle: other",101 % of control
same,T/C,"dose: 32.0 mg/kg/injection, schedule: Q01DX009 (ip), vehicle: other",101 % of control and 105 % of control
same,T/C,"dose: 64.0 mg/kg/injection, schedule: Q01DX009 (ip), vehicle: other",97 % of control
same,T/C,"dose: 128.0 mg/kg/injection, schedule: Q01DX009 (ip), vehicle: other",88 % of control
same,T/C,"dose: 256.0 mg/kg/injection, schedule: Q01DX009 (ip), vehicle: other",99 % of control
CCCC[N+]1(C)CCC(OC(=O)C(O)(c2ccccc2)C2CCCC2)C1 (stereo not given),T/C,[1],95 % of control
same,T/C,[2],90 % of control
same,T/C,"dose: 50.0 mg/kg/injection, schedule: Q01DX009 (ip), vehicle: Klucel (hydroxypropylcellulose) (HPC)",98 % of control and 89 % of control
COc1cc(NCCCCCCNC(C)C)c2nccc(C)c2c1,T/C,"dose: 3.13 mg/kg/injection, schedule: Q01DX009 (ip), vehicle: saline",91 % of control
same,T/C,"dose: 6.25 mg/kg/injection, schedule: Q01DX009 (ip), vehicle: saline",99 % of control
same,T/C,"dose: 12.5 mg/kg/injection, schedule: Q01DX009 (ip), vehicle: saline",99 % of control
C=C(C)[C@H]1O[C@H]2CC[C@@]3(C)[C@@](O)(CC[C@H]4[C@@H]5OC(C)(C)[C@H]6C[C@@H]7C(=C)Cc8c(Cl)cc9[nH]c(c5c9c8C76O)[C@@]43C)[C@@]23O[C@H]3[C@H]1O (stereo not given in full),T/C,"dose: 0.5 mg/kg/injection, schedule: Q01DX005 (ip), vehicle: Klucel (hydroxypropylcellulose) (HPC)",101 % of control
same,T/C,"dose: 1.0 mg/kg/injection, schedule: Q01DX005 (ip), vehicle: Klucel (hydroxypropylcellulose) (HPC)",97 % of control
same,T/C,"dose: 2.0 mg/kg/injection, schedule: Q01DX005 (ip), vehicle: Klucel (hydroxypropylcellulose) (HPC)",87 % of control
same,T/C,"dose: 3.75 mg/kg/injection, schedule: Q01DX005 (ip), vehicle: Klucel (hydroxypropylcellulose) (HPC)",107 % of control
same,T/C,"dose: 4.0 mg/kg/injection, schedule: Q01DX005 (ip), vehicle: Klucel (hydroxypropylcellulose) (HPC)",93 % of control
same,T/C,"dose: 7.5 mg/kg/injection, schedule: Q01DX005 (ip), vehicle: Klucel (hydroxypropylcellulose) (HPC)",115 % of control
same,T/C,"dose: 15.0 mg/kg/injection, schedule: Q01DX005 (ip), vehicle: Klucel (hydroxypropylcellulose) (HPC)",106 % of control
same,T/C,"dose: 30.0 mg/kg/injection, schedule: Q01DX005 (ip), vehicle: Klucel (hydroxypropylcellulose) (HPC)",107 % of control
same,T/C,"dose: 60.0 mg/kg/injection, schedule: Q01DX005 (ip), vehicle: Klucel (hydroxypropylcellulose) (HPC)",107 % of control
CCOC(=O)CC1=CS/C(=C(\C#N)C(=O)OCC)N1c1ccccc1,T/C,[3],100 % of control
same,T/C,[4],100 % of control
same,T/C,[5],100 % of control
CCCNC(C)(C)C(SSSC(c1ccc(C(F)(F)F)cc1)C(C)(C)NCCC)c1ccc(C(F)(F)F)cc1 (stereo not given),T/C,"dose: 100.0 mg/kg/injection, schedule: Q01DX001 (ip), vehicle: saline with Tween-80",100 % of control
same,T/C,"dose: 200.0 mg/kg/injection, schedule: Q01DX001 (ip), vehicle: saline with Tween-80",104 % of control
same,T/C,"dose: 400.0 mg/kg/injection, schedule: Q01DX001 (ip), vehicle: saline with Tween-80",100 % of control
Cc1nn2c(-c3cnns3)nnc2s1,T/C,"dose: 50.0 mg/kg/injection, schedule: Q01DX001 (ip), vehicle: Klucel (hydroxypropylcellulose) (HPC)",107 % of control
same,T/C,"dose: 100.0 mg/kg/injection, schedule: Q01DX001 (ip), vehicle: Klucel (hydroxypropylcellulose) (HPC)",107 % of control
same,T/C,"dose: 200.0 mg/kg/injection, schedule: Q01DX001 (ip), vehicle: Klucel (hydroxypropylcellulose) (HPC)",100 % of control
O=C(O)/C=C/C(=O)Nc1ccc(Cl)c(Cl)c1,T/C,"dose: 6.25 mg/kg/injection, schedule: Q01DX009 (ip), vehicle: Klucel (hydroxypropylcellulose) (HPC)",105 % of control
same,T/C,[1],115 % of control
same,T/C,[2],105 % of control
same,T/C,"dose: 400.0 mg/kg/injection, schedule: Q01DX009 (ip), vehicle: Klucel (hydroxypropylcellulose) (HPC)",109 % of control
COc1ccc(OC)c(NC(=O)CCCC(=O)C(C#N)c2ccc(CC#N)cc2)c1 (stereo not given),T/C,[6],98 % of control
same,T/C,[7],98 % of control
same,T/C,[8],103 % of control
CC(NC(=O)OC(C)(C)C)C(=O)NC(C)C(=O)OCc1ccccc1 (stereo not given),T/C,[3],99 % of control
same,T/C,[4],89 % of control and 105 % of control
same,T/C,[5],92 % of control
O=[N+]([O-])c1cc([N+](=O)[O-])c(Cl)s1,T/C,"dose: 6.25 mg/kg/injection, schedule: Q01DX009 (ip), vehicle: saline with Tween-80",104 % of control
same,T/C,"dose: 12.5 mg/kg/injection, schedule: Q01DX009 (ip), vehicle: saline with Tween-80",100 % of control
CCOC(=O)c1ccc(Nc2sc(C(=O)c3ccc(Br)cc3)c(N)c2C#N)cc1,T/C,[9],100 % of control
same,T/C,[10],108 % of control
same,T/C,"dose: 200.0 mg/kg/injection, schedule: Q01DX009 (ip), vehicle: saline with Tween-80",90 % of control
same,T/C,"dose: 400.0 mg/kg/injection, schedule: Q01DX009 (ip), vehicle: saline with Tween-80",86 % of control
O=NN(C(=O)NC1CCOCC1)C1CCOCC1,T/C,"dose: 25.0 mg/kg/injection, schedule: Q01DX001 (ip), vehicle: distilled water + Tween-80",101 % of control
same,T/C,"dose: 50.0 mg/kg/injection, schedule: Q01DX001 (ip), vehicle: distilled water + Tween-80",101 % of control
same,T/C,"dose: 100.0 mg/kg/injection, schedule: Q01DX001 (ip), vehicle: distilled water + Tween-80",102 % of control
same,T/C,"dose: 200.0 mg/kg/injection, schedule: Q01DX001 (ip), vehicle: distilled water + Tween-80",105 % of control
same,T/C,"dose: 400.0 mg/kg/injection, schedule: Q01DX001 (ip), vehicle: distilled water + Tween-80",102 % of control
Nc1ncc[nH]c1=O,T/C,[11],100 % of control
same,T/C,[12],97 % of control
C=C(C)[C@H]1C[C@@H](O)[C@H]2O[C@@]2(C)C1,T/C,[11],91 % of control
same,T/C,[12],90 % of control
same,T/C,"dose: 200.0 mg/kg/injection, schedule: Q01DX009 (ip), vehicle: saline",102 % of control
C=C1C(NC)CCC23CC24CCC2(C)C(C(C)=O)C(O)CC2(C)C4CCC13 (stereo not given),T/C,[9],92 % of control
same,T/C,[10],96 % of control
Cn1c2ccccc2c2nnc(N/N=C/c3cccs3)nc21,T/C,"dose: 400.0 mg/kg/injection, schedule: Q04DX002 (ip), vehicle: saline with Tween-80",105 % of control and 91 % of control
CCOc1ccc(C(C)c2cc3c(cc2OCC)OCO3)cc1 (stereo not given),T/C,"dose: 25.0 mg/kg/injection, schedule: Q01DX005 (ip), vehicle: saline with Tween-80",120 % of control
same,T/C,[5],157 % of control
CCCCCCCCCCCCCCCC(=O)Nc1ccn(C2OC(CO)C(O)C2O)c(=O)n1 (stereo not given),T/C,"dose: 3.12 mg/kg/injection, schedule: Q01DX009 (ip), vehicle: suspension in saline",172 % of control
same,T/C,"dose: 6.25 mg/kg/injection, schedule: Q01DX009 (ip), vehicle: suspension in saline",188 % of control
same,T/C,"dose: 12.5 mg/kg/injection, schedule: Q01DX009 (ip), vehicle: suspension in saline",191 % of control and 235 % of control
same,T/C,"dose: 25.0 mg/kg/injection, schedule: Q01DX009 (ip), vehicle: suspension in saline",260 % of control and 283 % of control
Cn1cc(CCC(=O)C2C=CC=CC2=NC(=O)CCCl)c2ccccc21 (stereo not given),T/C,[6],107 % of control
same,T/C,[7],101 % of control
same,T/C,[8],94 % of control
Cc1nn(C(=O)c2ccncc2)c(C)c1N=Nc1cccc([N+](=O)[O-])c1,T/C,"dose: 100.0 mg/kg/injection, schedule: Q04DX003 (ip), vehicle: saline",89 % of control
same,T/C,"dose: 200.0 mg/kg/injection, schedule: Q04DX003 (ip), vehicle: saline",93 % of control
COc1ccc(-c2cc(C(=O)Nc3cc(C(F)(F)F)cc(C(F)(F)F)c3)c3ccccc3n2)cc1,T/C,[3],91 % of control
same,T/C,"dose: 100.0 mg/kg/injection, schedule: Q01DX005 (ip), vehicle: DMSO",118 % of control
same,T/C,[4],89 % of control
same,T/C,"dose: 200.0 mg/kg/injection, schedule: Q01DX005 (ip), vehicle: DMSO",118 % of control
same,T/C,[5],93 % of control
same,T/C,"dose: 400.0 mg/kg/injection, schedule: Q01DX005 (ip), vehicle: DMSO",96 % of control
CCOC(OCC)N(C)C,T/C,"dose: 60.0 mg/kg/injection, schedule: Q01DX005 (ip), vehicle: saline",95 % of control
same,T/C,"dose: 120.0 mg/kg/injection, schedule: Q01DX005 (ip), vehicle: saline",100 % of control
same,T/C,"dose: 240.0 mg/kg/injection, schedule: Q01DX005 (ip), vehicle: saline",93 % of control
